From US9464280B1, “Beta-lactamases with improved properties for therapy” (priority 2014, dated 2016)
In brackets after ≈: the same amount, converted by molar mass. Like-named read-outs stand apart in the source and are kept apart here.

Key:
[1] = tested on: Escherichia coli ATCC 25922; assay: Microbroth dilution: EC50 of ampicillin and ceftriaxone in absence and presence of P1A; format: cell-based; conditions: for EC50: Escherichia coli, ATCC25922, P1A 0, read-out: Ceftriaxone EC50
Experimental: (§1) Escherichia coli strain 25922 was cultured from glycerol stocks to logarithmic growth in cation adjusted Mueller-Hinton broth at 37° C. in an atmospheric environment and diluted in cation adjusted Mueller-Hinton broth to achieve a starting in well concentration of 5×10^5 CFU/mL. Serial 2-fold dilution of antimicrobial compounds were prepared in cation adjusted Mueller-Hinton broth to achieve final in well concentration of 128 μg/mL to 0.13 μg/mL for ampicillin and 4 μg/mL 4 ng/mL in the absence or presence of serial 10-fold dilutions of P1A, P3A, or P4A β-lactamase standard, 5 pg/mL to 50 ng/mL for ampicillin and […] to 500 ng/mL for ceftriaxone, ceftazidime, meropenem, cefepime, cefazolin, amp/sulbactam, cefoperazone, cefotaxime, and cefuroxime. Antibiotics were either added to the P1A and incubated for 30 min at 37° C. (pre-incubation) prior to addition of bacteria, or added to the plates following the addition of P1A, P3A, P4A, and bacteria (simultaneous). All concentrations and combinations were evaluated in triplicate in a 96-well plate format that contained media only, compound plus media only (colorimetric control), and untreated bacterial controls.
The 50% effective inhibitory concentration (EC50) of ampicillin and ceftriaxone against Escherichia coli was determined in the absence and presence of P1A β-lactamase. For the purposes of these studies, the stated effective concentration was the initial concentration of ampicillin or ceftriaxone added at the beginning of the experiment, and not a concentration measured during the course of the experiment or at the end of the incubation period.
Antibiotics were either added to the P1A and incubated for 30 min at 37° C. (Pre-incubation) prior to addition of bacteria, or added to the plates following the addition of P1A and bacteria (Simultaneous). All concentrations and combinations were evaluated in triplicate in a 96-well plate format. Following overnight incubation, the 0D625 of the plates was measured in a Spectramax 384 plate reader and the data were imported into a customized Excel spreadsheet for the determination of the 50% effective inhibitory concentration at (EC50) by linear regression analysis. For the purposes of these studies, the stated effective concentration is the initial concentration of ampicillin or ceftriaxone added at the beginning of the experiment, and not a concentration measured during the course of the experiment or at the end of the incubation period.
Antibiotics were either added to the P1A and incubated for 30 min at 37° C. (Pre-incubation) prior to addition of bacteria, or added to the plates following the addition of P1A and bacteria (Simultaneous). All concentrations and combinations were evaluated in triplicate in a 96-well plate format. Following overnight incubation, the OD625 of the plates was measured in a Spectramax 384 plate reader and the data were imported into a customized Excel spreadsheet for the determination of the 50% effective inhibitory concentration (EC50).
Antibiotics were added to the P1A bacteria (Simultaneous). All concentrations and combinations were evaluated in triplicate in a 96-well plate format. Following overnight incubation, the OD625 of the plates was measured in a Spectramax 384 plate reader and the data were imported into a customized Excel spreadsheet for the determination of the 50% effective inhibitory concentration at (EC50) by linear regression analysis.

[2] = tested on: Escherichia coli ATCC 25922; assay: as above; format: cell-based; conditions: absence of P1A; ceftriaxone 0.13 to 128 μg/mL
[3] = tested on: Escherichia coli ATCC 25922; assay: microbe, parasite or virus in culture; format: cell-based; conditions: for EC50 / EC90: Escherichia coli, ATCC25922, no enzyme; for EC90: Table 17, read-out: Ceftriaxone EC90
[4] = tested on: Escherichia coli ATCC 25922; assay: microbe, parasite or virus in culture; format: cell-based
Experimental: as §1
Next, the 90% effective inhibitory concentration (EC90) of ampicillin, ceftriaxone, ceftazidime, meropenem, cefepime, cefazolin, amp/sulbactam, cefoperazone, cefotaxime, and cefuroxime against Escherichia coli was determined in the absence and presence of P1A, P3A, or P4A β-lactamase. For the purposes of these studies, the stated effective concentration was the initial concentration of ampicillin, ceftriaxone, ceftazidime, meropenem, cefepime, cefazolin, amp/sulbactam, cefoperazone, cefotaxime, and cefuroxime added at the beginning of the experiment, and not a concentration measured during the course of the experiment or at the end of the incubation period.
Specifically, the assay was performed by diluting (2-fold steps) the chosen antibiotic across the rows of a 96 well dish. The MIC was determined as the point at which the diluted antibiotic transitions from killing to not killing the bacteria (in this case, an E. coli strain that is sensitive to all antibiotics). P1A, P3A, and P4A were diluted (10 fold steps) down the columns (the β-lactamase concentrations increased down the columns). […] The latter point was used as the cut-off point. […] However, for this assay, the absolute MIC is not the most important parameter. The most relevant readout was the β-lactamase concentration at which the apparent MIC increases to the maximum amount of antibiotic tested.
(§2) E coli 29522 was incubated overnight in the presence of serial dilutions of antibiotic and the indicated amounts of β-lactamase protein from cell culture supernatants in a 96 well plate. Bacterial density (OD625) of the cultures was measured and the concentration at which the density was reduced by 90% relative to an untreated bacterial control (EC90) was determined. The assay was performed on two separate days and the data reported as Rep1 and Rep2. NA=not assayed.
as §2, with “determined.” for “determined. The assay was performed on two separate days and the data reported as Rep1 and Rep2. NA=not assayed.”

E. coli (ATCC 25922) = assay: Microtiter plate antibiotic degradation activity assay; format: cell-based; conditions: enzyme 10 or 100 ng/ml; antibiotic 10, 100 or 1000 μg/ml; FIG. 8
Experimental: P1A and P4A were screened for degradation of ampicillin, ceftriazone, cefotaxime, cefozolin, cefuroxime, cefoperazone, cefepime, and ceftazidime in a microtiter plate activity assay that was designed to mimic the activity of the beta-lactamases in the gut in the presence of high antibiotic concentrations. The assay was performed by mixing 10, 100 or 1000 μg/ml of the indicated antibiotics with P1A or P4A, at concentrations of 10 or 100 ng/ml. Plates were either incubated for one hour at 37° C. after which E. coli (ATCC 25922) was added, or E. coli was added immediately after the addition of the beta-lactamase enzymes. The plates were incubated overnight and the bacterial growth quantified by measuring the absorbance at 625 nm (OD625) in a Spectramax 384 Plus plate reader. The analysis was performed twice for each beta-lactamase and antibiotic. The beta-lactamase activity of the culture supernatants was determined as positive or negative based on the appearance of bacterial growth in the individual wells. An OD625 of 1.0 or greater indicated maximal bacterial growth, therefore complete antibiotic degradation and high beta-lactamase activity.

[5] = Kinetic parameters of P1A mutant strains; format: biochemical
Experimental: (§3) β-lactamase activity of the mutants was further characterised from E. coli cell lysates and B. subtilis growth supernatant with ampicillin, cefotaxime, ceftriaxone, cefuroxime, ceftazidime, meropenem and imipenem. The activities were determined using only one substrate concentration of each antibiotic tested. Selection of the antibiotic concentration was done with the antibiotic concentration as high as was practical, [S]>>Km. Based on these preliminary experiments, more accurate kinetic parameters were determined for a couple of mutants from both the site-directed and the random mutagenesis research lines. All the mutant enzymes selected for more detailed study were expressed in the B. subtilis host strain RS303. The cells carrying the mutated proteins were grown in minimal medium over-night after which the cells were harvested and the supernatant was concentrated in 1:10 with Amicon Ultra-4 centrifugal devices, MWCO 10000 (Amicon). Protein concentration in each culture supernatant was estimated from 12% SDS-PAGE (Criterion XT Bis-Tris, BioRad, Calif., USA) using the P1A reference material A18K31 as a standard. Kinetic parameters were measured for cefotaxime, ceftriaxone and cefuroxime for each selected mutant strain. The site-directed mutants were designed to hydrolyze cefotaxime and random mutants were screened with ceftriaxone, which made these antibiotics natural choices for determining kinetic parameters.

[6] = Preliminary enzymatic activity of P1A mutants from B. subtilis supernatants; format: biochemical; conditions: B. subtilis supernatant, one substrate concentration
Experimental: as §3

[7] = cited from earlier work
[8] = concentrated B. subtilis supernatant
[9] = relative values of P1A activities

CO/N=C(\C(=O)N[C@@H]1C(=O)N2C(C(=O)O)=C(CSc3nc(=O)c(=O)[nH]n3C)CS[C@H]12)c1csc(N)n1 [Ceftriaxone] showed an EC50 ([1]; pre-incubation, Table 12) of less than 0.13 µg/mL, an EC50 ([1]; pre-incubation, Table 13) of 0.03 µg/mL and an EC50 ([1]; simultaneous, Table 12) of less than 0.13 µg/mL. For the same molecule, the EC50 ([1]; simultaneous, Table 13) was 0.02 µg/mL, the EC50 ([1]; simultaneous, Table 14 repeat analysis) was 0.03 µg/mL and the “ceftriaxone EC99” value [2] was less than 0.13 µg/mL. The EC50 ([3]; 1st value, high test 1 μg/mL, Table 16, read-out: Ceftriazone EC50) was 0.06 µg/mL (≈ 0.108 µM), the EC90 ([3]; 1st value, high test 1 μg/mL) was 0.03 µg/mL (≈ 0.0541 µM) and the EC50 ([3]; 2nd value, high test 1 μg/mL, Table 16, read-out: Ceftriazone EC50) was 0.06 µg/mL (≈ 0.108 µM). The EC90 ([3]; 2nd value, high test 1 μg/mL) was 0.03 µg/mL (≈ 0.0541 µM), the EC50 ([3]; Rep 2, Table 15, read-out: Ceftriaxone EC50) was 0.02 µg/mL (≈ 0.0361 µM) and the “Ceftriaxone EC50” value ([3]; no enzyme, Rep 1, Table 15) was 0.008 µg/mL. The “Ceftriaxone EC90” value ([4]; no enzyme, 2nd value, high test 1 μg/mL, Table 17) was 0.06 µg/mL.

For “P1A: Wild type; recombinant Bacillus licheniformis 749/C small exo beta-lactamase (PenP), SEQ ID NO: 1”, the “more active against ampicillin than ceftriaxone” value ([1]; microbiological assay) was 1,000 fold, the “activity for ceftriaxone, cefotaxime, and ceftazidime” value (E. coli (ATCC 25922)) was “no activity” and the “Cefotaxime Vmax” value [5, 8] was 1.18 nmol/s. For the same molecule, the Cefotaxime kcat [5, 8] was 16 s⁻¹, the “Ceftriaxone Vmax” value [5, 8] was 2.81 nmol/s and the Ceftriaxone kcat [5, 8] was 25 s⁻¹. The “Cefuroxime Vmax” value [5, 8] was 1.25 nmol/s, the Cefuroxime kcat [5, 8] was 23 s⁻¹ and the “Cefotaxime Vmax” value [5, 9] was 1.00. For the same molecule, the Cefotaxime kcat [5, 9] was 1 s⁻¹, the “Ceftriaxone Vmax” value [5, 9] was 1.00 and the Ceftriaxone kcat [5, 9] was 1 s⁻¹. For the same molecule, the “Cefuroxime Vmax” value [5, 9] was 1.00, the Cefuroxime kcat [5, 9] was 1 s⁻¹ and the “AMP = ampicillin enzymatic activity” value [6] was 1.00 multiples of P1A. For the same molecule, the “CAZ = ceftazidime enzymatic activity” value [6] was 1.00 multiples of P1A, the “CRO = ceftriaxone enzymatic activity” value [6] was 1.00 multiples of P1A and the “CTX = cefotaxime enzymatic activity” value [6] was 1.00 multiples of P1A. The “CXM = cefuroxime enzymatic activity” value [6] was 1.00 multiples of P1A, the inhibition by sulbactam ([4]; amp/sulbactam data) was “effectively inhibited” and the “efficacy in humans with piperacillin/tazobactam” value [7] was “efficacious”.
